Drawing on patent US20170305857A1, “N-ACYLPIPERIDINE ETHER TROPOMYOSIN-RELATED KINASE INHIBITORS” (Pfizer Limited, priority 2014, published 2017), this text covers IC50 for 27 compounds.

For orientation: IC50 means the point on the concentration scale where inhibition reaches its midpoint.

For this assay, the target named is T1, recombinant His-tagged cytoplasmic domains of TRKA receptor (NTRK1, PV3144, aa 441-796) (Homo sapiens, UniProt P04629).
T1 construct: aa 441-796; His; purchased Invitrogen PV3144
T1 sequence (P04629 441-796): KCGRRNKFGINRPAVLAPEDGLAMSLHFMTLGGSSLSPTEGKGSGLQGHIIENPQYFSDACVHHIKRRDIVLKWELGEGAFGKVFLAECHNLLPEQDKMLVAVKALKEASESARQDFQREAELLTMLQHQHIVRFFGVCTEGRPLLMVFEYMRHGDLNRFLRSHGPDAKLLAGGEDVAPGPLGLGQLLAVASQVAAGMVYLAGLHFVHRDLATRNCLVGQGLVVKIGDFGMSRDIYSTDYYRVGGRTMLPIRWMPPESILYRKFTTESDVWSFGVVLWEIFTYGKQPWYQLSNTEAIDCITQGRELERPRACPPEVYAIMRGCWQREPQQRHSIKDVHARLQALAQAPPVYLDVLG
Nature of the assay: Isolated TRK enzyme assay (HTRF KinEASE-TK, PV3144 TrkA enzyme assay). Type of assay: biochemical. To be noted: 4 nM enzyme, 40 uM ATP, 35 min, arithmetic mean where more than one reading. As to the method:
Isolated TRK Enzyme assays use the HTRF KinEASE-TK kit (Cisbio Cat #62TK0PEJ) with recombinant His-tagged cytoplasmic domains of TRKA receptor sourced from Invitrogen (see table below). This activity-assay measures the phosphorylation of tyrosine residues within a substrate from the HTRF kit which has been validated by Cisbio for a variety of tyrosine kinases including the TRK receptors.
0.5 mM stock solutions of test compounds are prepared and serially diluted in 100% DMSO. […] Greiner low volume black plates containing 0.2 ul of serially diluted compound, standard and HPE/ZPE are created using the Bravo nanolitre dispenser.
1× enzyme buffer is prepared from 5× Enzymatic Buffer from the Cisbio KinEASE TK kit using MilliQ water. The buffer is then supplemented with 10 mM MgCl and 2 mM DTT (both from Sigma).
Following this preactivation step, 5 ul/well of enzyme+ATP mix is added using a Multidrop Micro to the assay plate, spotted with 0.2 ul 100% DMSO compound. This is left for 20 mins at room temperature before adding 5 ul of 2 uM TK-substrate-Biotin (from the Cisbio kit) diluted in 1× enzyme buffer (1 uM FAC) using the Multidrop Micro. The reaction is incubated at room temperature for the optimized assay reaction time (see table).
After the Detection Reagent addition, plates are covered and incubated at room temperature for 60 minutes. […] Test compound data are expressed as percentage inhibition defined by HPE and ZPE values for each plate. Percentage inhibition in the presence of test compound is plotted against compound concentration on a log scale to determine an IC50 from the resultant sigmoid curve.
Where more than one reading was taken, the arithmetic mean is presented.
As for `Cn1cc(-c2ccc(OC3CCN(C(=O)Cc4ccc(SC(F)(F)F)cc4)CC3)c(C(N)=O)c2)cn1` [Example 108, 5-(1-methyl-1H-pyrazol-4-yl)-2-{[1-({4-[(trifluoromethyl)sulfanyl]phenyl}acetyl)piperidin-4-yl]oxy}benzamide], the IC50 turned out to be 2.7 nM. With `NC(=O)c1cc(-c2c[nH]c(C(F)(F)F)n2)cnc1O[C@@H]1CCN(C(=O)Cc2ccc(OC(F)(F)F)cc2)C[C@@H]1F` [Example 183, 2-{[(3S,4R)-3-fluoro-1-{[4-(trifluoromethoxy)phenyl]acetyl}piperidin-4-yl]oxy}-5-[2-(trifluoromethyl)-1H-imidazol-4-yl]pyridine-3-carboxamide], the IC50 is 7.12 nM.

Regarding `Cn1cc(-c2ccc(OC3CCN(C(=O)Cc4ccc(C(C)(C)C)cc4)CC3)c(C(N)=O)c2)cn1` [Example 107, 2-({1-[(4-tert-butylphenyl)acetyl]piperidin-4-yl}oxy)-5-(1-methyl-1H-pyrazol-4-yl)benzamide], the IC50 came out at 9.8 nM. In the case of `Cn1cnc(-c2ccc(O[C@@H]3CCN(C(=O)Cc4ccc(OC(F)(F)F)cc4)C[C@H]3F)c(C(N)=O)c2)c1` [Example 53, 2-(((3R,4R)-3-fluoro-1-(2-(4-(trifluoromethoxy)phenyl)acetyl)piperidin-4-yl)oxy)-5-(1-methyl-1H-imidazol-4-yl)benzamide], the IC50 is 1.2 nM.

As for `CNC(=O)Cn1cnc(-c2ccc(OC3CCN(C(=O)Cc4ccc(OC(F)(F)F)cc4)CC3)c(C(N)=O)c2)c1` [Example 128, 5-{1-[2-(methylamino)-2-oxoethyl]-1H-imidazol-4-yl}-2-[(1-{[4-(trifluoromethoxy)phenyl]acetyl}piperidin-4-yl)oxy]benzamide], the IC50 was determined as 6.1 nM. Then `NC(=O)c1cc(-c2c[nH]cn2)cnc1O[C@H]1CCN(C(=O)Cc2ccc(OC(F)(F)F)cc2)C[C@H]1F` [Example 141, 2-{[(3R,4S)-3-fluoro-1-{[4-(trifluoromethoxy)phenyl]acetyl}piperidin-4-yl]oxy}-5-(1H-imidazol-4-yl)pyridine-3-carboxamide], with 1.4 nM; and `Cc1cn(-c2cnc(O[C@@H]3CCN(C(=O)Cc4ccc(OC(F)(F)F)cc4)C[C@@H]3F)c(C(N)=O)c2)cn1` [Example 162, 2-(((3S,4R)-3-fluoro-1-(2-(4-(trifluoromethoxy)phenyl)acetyl)piperidin-4-yl)oxy)-5-(4-methyl-1H-imidazol-1-yl)nicotinamide], with 12.3 nM; and `CCc1ccc(CC(=O)N2CCC(Oc3ccc(-c4cnn(C)c4)cc3C(N)=O)CC2)cc1` [Example 153, 2-({1-[(4-ethylphenyl)acetyl]piperidin-4-yl}oxy)-5-(1-methyl-1H-pyrazol-4-yl)benzamide], with 19.3 nM. In the case of `Cn1cnc(-c2ccc(O[C@@H]3CCN(C(=O)Cc4ccc(OC(F)(F)F)cc4)C[C@H]3F)c(C(N)=O)c2)c1` (single isomer, unassigned) [Example 112] it was 6.4 nM. In the case of `NC(=O)c1cc(-c2ccc(C(=O)O)cc2)cnc1OC1CCN(C(=O)Cc2ccc(OC(F)(F)F)cc2)CC1` [Example 95, 4-{5-carbamoyl-6-[(1-{[4-(trifluoromethoxy)phenyl]acetyl}piperidin-4-yl)oxy]pyridin-3-yl}benzoic acid] it was 5.9 nM. Regarding `Cc1nc(-c2cnc(O[C@@H]3CCN(C(=O)Cc4ccc(OC(F)(F)F)cc4)C[C@@H]3F)c(C(N)=O)c2)c[nH]1` [Example 120], the IC50 turned out to be 1.3 nM. For `NC(=O)c1cc(-c2cnn(C3CS(=O)(=O)C3)c2)ccc1O[C@@H]1CCN(C(=O)Cc2ccc(OC(F)(F)F)cc2)C[C@@H]1F` [Example 1, 5-[1-(1,1-dioxidothietan-3-yl)-1H-pyrazol-4-yl]-2-{[(3S,4R)-3-fluoro-1-{[4-(trifluoromethoxy)phenyl]acetyl}piperidin-4-yl]oxy}benzamide], the IC50 worked out at 0.4 nM. Take `NC(=O)c1cc(N2CCCC2)ncc1OC1CCN(C(=O)Cc2ccc(OC(F)(F)F)cc2)CC1` [Example 54, 2-(pyrrolidin-1-yl)-5-((1-(2-(4-(trifluoromethoxy)phenyl)acetyl)piperidin-4-yl)oxy)isonicotinamide]: the IC50 is 42.4 nM. For the compound `NC(=O)c1cc(-c2cnn(C3CS(=O)(=O)C3)c2)ccc1OC1CCN(C(=O)Cc2ccc(OC(F)(F)F)cc2)CC1` [Example 13, 5-[1-(1,1-dioxidothietan-3-yl)-1H-pyrazol-4-yl]-2-[(1-{[4-(trifluoromethoxy)phenyl]acetyl}piperidin-4-yl)oxy]benzamide], the IC50 is 2.2 nM. In the case of `Cn1cnc(-c2ccc(O[C@H]3[C@@H]4CO[C@H]3CN(C(=O)Cc3ccc(OC(F)(F)F)cc3)C4)c(C(N)=O)c2)c1` [Example 158, 5-(1-methyl-1H-imidazol-4-yl)-2-{[(1S,5S,8S)-3-{[4-(trifluoromethoxy)phenyl]acetyl}-6-oxa-3-azabicyclo[3.2.1]oct-8-yl]oxy}benzamide] it was 18.4 nM. In the case of `NC(=O)c1cc(-c2cnn(C3CS(=O)(=O)C3)c2)cnc1O[C@@H]1CCN(C(=O)Cc2ccc(OC(F)(F)F)cc2)C[C@@H]1F` [Example 23, 5-[1-(1,1-dioxidothietan-3-yl)-1H-pyrazol-4-yl]-2-{[(3S,4R)-3-fluoro-1-{[4-(trifluoromethoxy)phenyl]acetyl}piperidin-4-yl]oxy}pyridine-3-carboxamide] it was 1.4 nM; in that of `Cn1cnc(-c2cnc(O[C@@H]3CCN(C(=O)Cc4ccc(OC5CC5)cc4)C[C@@H]3F)c(C(N)=O)c2)c1` [Example 7, 2-{[(3S,4R)-1-{[4-(cyclopropyloxy)phenyl]acetyl}-3-fluoropiperidin-4-yl]oxy}-5-(1-methyl-1H-imidazol-4-yl)pyridine-3-carboxamide], 1.4 nM; in that of `Cn1cnc(-c2ccc(O[C@H]3CCN(C(=O)Cc4ccc(OC5CC5)cc4)C[C@H]3F)c(C(N)=O)c2)c1` (racemic) [Example 40, 1:1 Cis-racemic 2-{[1-{[4-(cyclopropyloxy)phenyl]acetyl}-3-fluoropiperidin-4-yl]oxy}-5-(1-methyl-1H-imidazol-4-yl)benzamide], 1 nM.

`Cn1cc(-c2ccc(OC3CCN(C(=O)Cc4ccc(OC5CC5)cn4)CC3)c(C(N)=O)c2)cn1` [Example 173, 2-[(1-{[5-(cyclopropyloxy)pyridin-2-yl]acetyl}piperidin-4-yl)oxy]-5-(1-methyl-1H-pyrazol-4-yl)benzamide]: the IC50 came out at 11.4 nM.

As to `CS(=O)(=O)Cn1cc(-c2cc(C(N)=O)c(O[C@@H]3CCN(C(=O)Cc4ccc(OC(F)(F)F)c(F)c4)C[C@@H]3F)cn2)cn1` [Example 37, 5-{[(3S,4R)-3-fluoro-1-{[3-fluoro-4-(trifluoromethoxy)phenyl]acetyl}piperidin-4-yl]oxy}-2-{1-[(methylsulfonyl)methyl]-1H-pyrazol-4-yl}pyridine-4-carboxamide], the IC50 stood at 7.4 nM.

For the compound `CS(=O)(=O)Cn1cc(-c2cnc(O[C@@H]3CCN(C(=O)Cc4ccc(OC(F)(F)F)c(F)c4)C[C@@H]3F)c(C(N)=O)c2)cn1` [Example 24, 2-{[(3S,4R)-3-fluoro-1-{[3-fluoro-4-(trifluoromethoxy)phenyl]acetyl}pipertdin-4-yl]oxy}-5-{1-[(methylsulfonyl)methyl]-1H-pyrazol-4-yl}pyridine-3-carboxamide], the IC50 was found to be 2.9 nM. Then `NC(=O)c1cc(-n2cc(CO)cn2)cnc1O[C@@H]1CCN(C(=O)Cc2ccc(OC(F)(F)F)cc2)C[C@@H]1F` [Example 160, 2-{[(3S,4R)-3-fluoro-1-{[4-(trifluoromethoxy)phenyl]acetyl}piperidin-4-yl]oxy}-5-[4-(hydroxymethyl)-1H-pyrazol-1-yl]pyridine-3-carboxamide], with 8.46 nM. In the case of `NC(=O)c1cc(-c2c[nH]nn2)ccc1OC1CCN(C(=O)Cc2ccc(OC(F)(F)F)cc2)CC1` [Example 136, 5-(1H-1,2,3-triazol-4-yl)-2-((1-(2-(4-(trifluoromethoxy)phenyl)acetyl)piperidin-4-yl)oxy)benzamide] it was 5.3 nM. Take `Cn1cnc(-c2ccc(O[C@@H]3C[C@H]4CC[C@@H](C3)N4C(=O)Cc3ccc(OC(F)(F)F)cc3)c(C(N)=O)c2)c1` [Example 48, 5-(1-methyl-1H-imidazol-4-yl)-2-(((1R,3s,5S)-8-(2-(4-(trifluoromethoxy)phenyl)acetyl)-8-azabicyclo[3.2.1]octan-3-yl)oxy)benzamide]: the IC50 was determined as 3.6 nM.

For the compound `Cc1nn(C[C@@H](O)CO)c(C)c1-c1ccc(OC2CCN(C(=O)Cc3ccc(OC(F)(F)F)cc3)CC2)c(C(N)=O)c1` [Example 123], the IC50 came to 3.8 nM. In the case of `NC(=O)c1cc(-c2cn[nH]c2)cnc1O[C@H]1CCN(C(=O)Cc2ccc(OC3CC3)cn2)C[C@@H]1F` [Example 80, 2-{[(3S,4S)-1-{[5-(cyclopropyloxy)pyridin-2-yl]acetyl}-3-fluoropiperidin-4-yl]oxy}-5-(1H-pyrazol-4-yl)pyridine-3-carboxamide] it was 9.9 nM; in that of `Cn1cnc(-c2ccc(OC3CCN(C(=O)Cc4ccc(OC(F)(F)F)c(Cl)c4)CC3)c(C(N)=O)c2)c1` [Example 16, 2-[(1-{[3-chloro-4-(trifluoromethoxy)phenyl]acetyl}piperidin-4-yl)oxy]-5-(1-methyl-1H-imidazol-4-yl)benzamide], 10.5 nM.
